ChEMBL document CHEMBL3792383, “C-cinnamoyl glycosides as a new class of anti-filarial agents” (Eur J Med Chem, 2016)
≈ marks a conversion by molar mass, not a printed value. Calls of active or inactive are those of the source. The rule behind the calls is not given here.

Columns and labels:
Setaria cervi [1] = assay: Antifilarial activity against microfilaria of Setaria cervi assessed as inhibition of relative movability after 24 hrs by microscopy; format: functional, organism-based
Setaria cervi [2] = assay: Antifilarial activity against microfilaria of Setaria cervi assessed as inhibition of worm viability after 24 hrs by MTT assay; format: functional
[3] = Cytotoxicity against human normal kidney epithelial cells after 24 hrs by MTT assay; format: cell-based, Epithelial cell
[4] = Selectivity index, ratio of CC50 for human normal kidney epithelial cells to IC50 for microfilaria of Setaria cervi; format: functional, Epithelial cell
Setaria cervi [5] = assay: Potency index, ratio of ivermectin LC50 to compound LC50 for microfilaria of Setaria cervi by MTT assay; format: functional
Setaria cervi [6] = assay: Induction of apoptosis in microfilaria of Setaria cervi assessed as DNA fragmentation after 24 hrs by propidium iodide staining-based inverted fluorescence microscopy; format: functional, organism-based
Setaria cervi [7] = assay: Induction of apoptosis in microfilaria of Setaria cervi assessed as DNA fragmentation after 24 hrs by Hoechst 33342 staining-based fluorescence microscopy; format: functional, organism-based
Setaria cervi [8] = assay: Induction of cuticular sheath damage in microfilaria of Setaria cervi after 24 hrs by scanning electron microscopy; format: functional, organism-based
Setaria cervi [9] = assay: Induction of apoptosis in microfilaria of Setaria cervi assessed as chromatin condensation after 24 hrs by Hoechst 33342 staining-based fluorescence microscopy; format: functional, organism-based
[10] = Antifilarial activity against microfilaria of Wuchereria bancrofti assessed as inhibition of relative movability after 24 hrs by microscopy; format: functional
Wuchereria bancrofti = assay: Antifilarial activity against microfilaria of Wuchereria bancrofti assessed as reduction in worm viability at 18 nM after 24 hrs by MTT assay; format: functional
Setaria cervi [11] = assay: Induction of apoptosis in microfilaria of Setaria cervi assessed as chromatin condensation after 24 hrs by propidium iodide staining-based inverted fluorescence microscopy; format: functional, organism-based

| Compound | IC50 (Setaria cervi [1]; Setaria cervi, 24 h) [nM] | MIC (Setaria cervi [1]; Setaria cervi, 24 h) [µM] | LC50 (Setaria cervi [2]) [nM] | other results |
| --- | --- | --- | --- | --- |
| CC(=O)OC[C@H]1O[C@@H](CC(=O)/C=C/c2ccccc2)[C@H](OC(C)=O)[C@@H](OC(C)=O)[C@@H]1OC(C)=O | 38.8 | 0.0206 (≈ 9.8 ng/mL) | 108 |  |
| CC(=O)OC[C@H]1O[C@@H](CC(=O)/C=C/c2cccnc2)[C@H](OC(C)=O)[C@@H](OC(C)=O)[C@@H]1OC(C)=O | 7.64 | 0.00377 (≈ 1.8 ng/mL) | 26.7 | CC50 at 24 h [3]: 4.17 nM; Ratio CC50/IC50 [4]: 0.56 |
| CC(=O)OC[C@H]1O[C@@H](CC(=O)/C=C/c2ccc(O)cc2)[C@H](OC(C)=O)[C@@H](OC(C)=O)[C@@H]1OC(C)=O | > 900 | > 0.9 | > 900 |  |
| COc1ccc(/C=C/C(=O)C[C@@H]2O[C@H](COC(C)=O)[C@@H](OC(C)=O)[C@H](OC(C)=O)[C@H]2OC(C)=O)cc1OCc1ccccc1 | 250 | 0.123 (≈ 75.2 ng/mL) | > 900 |  |
| CC(=O)OC[C@H]1O[C@@H](CC(=O)/C=C/c2ccc(C(F)(F)F)cc2)[C@H](OC(C)=O)[C@@H](OC(C)=O)[C@@H]1OC(C)=O | 6.89 | 0.0034 (≈ 1.85 ng/mL) | 24.6 | CC50 at 24 h [3]: 102 nM; RatioLC50 (Setaria cervi [5]): 3.5; Activity (Setaria cervi [6]): Active; Activity (Setaria cervi [7]): Active; Activity (Setaria cervi [8]): Active; Activity (Setaria cervi [9]): Active; Ratio CC50/IC50 [4]: 14.87; IC50 [10]: 8.96 nM; MIC [10]: 0.0044 µM (≈ 2.4 ng/mL); inhibition [10]: Dose-dependent effect; Activity (Wuchereria bancrofti): 40.6%; Activity (Setaria cervi [11]): Active |
| CC(=O)OC[C@H]1O[C@@H](CC(=O)/C=C/c2ccc(OC(C)=O)cc2)[C@H](OC(C)=O)[C@@H](OC(C)=O)[C@@H]1OC(C)=O | 119 | 0.0342 (≈ 18.3 ng/mL) | 336 |  |
| CC(=O)OC[C@H]1O[C@@H](CC(=O)/C=C/c2ccc(OCc3ccccc3)cc2)[C@H](OC(C)=O)[C@@H](OC(C)=O)[C@@H]1OC(C)=O | 348 | 0.263 (≈ 153 ng/mL) | > 900 |  |
| CC(=O)OC[C@H]1O[C@@H](CC(=O)/C=C/c2ccc([N+](=O)[O-])s2)[C@H](OC(C)=O)[C@@H](OC(C)=O)[C@@H]1OC(C)=O | 21.3 | 0.0106 (≈ 5.6 ng/mL) | 47.5 |  |
| COc1ccc(/C=C/C(=O)C[C@@H]2O[C@H](COC(C)=O)[C@@H](OC(C)=O)[C@H](OC(C)=O)[C@H]2OC(C)=O)cc1OC | 81.4 | 0.0629 (≈ 33.7 ng/mL) | 274 |  |
| CC(=O)OC[C@H]1O[C@@H](CC(=O)/C=C/c2cccc([N+](=O)[O-])c2)[C@H](OC(C)=O)[C@@H](OC(C)=O)[C@@H]1OC(C)=O | 11.3 | 0.00594 (≈ 3.1 ng/mL) | 29 | CC50 at 24 h [3]: 15.4 nM; Ratio CC50/IC50 [4]: 1.44 |
| CC(=O)OC[C@H]1O[C@@H](CC(=O)/C=C/c2cc(Cl)cc(Cl)c2)[C@H](OC(C)=O)[C@@H](OC(C)=O)[C@@H]1OC(C)=O | 7.52 | 0.00532 (≈ 2.9 ng/mL) | 15.8 | CC50 at 24 h [3]: 32.9 nM; RatioLC50 (Setaria cervi [5]): 5.4; Activity (Setaria cervi [6]): Active; Activity (Setaria cervi [7]): Active; Activity (Setaria cervi [8]): inactive; Activity (Setaria cervi [9]): Active; Ratio CC50/IC50 [4]: 4.94; IC50 [10]: 9.33 nM; MIC [10]: 0.00476 µM (≈ 2.6 ng/mL); inhibition [10]: Dose-dependent effect; Activity (Wuchereria bancrofti): 73.1%; Activity (Setaria cervi [11]): Active |
| CCOc1ccc(/C=C/C(=O)C[C@@H]2O[C@H](COC(C)=O)[C@@H](OC(C)=O)[C@H](OC(C)=O)[C@H]2OC(C)=O)cc1 | 51.4 | 0.0279 (≈ 14.5 ng/mL) | 76.8 |  |
| COc1cc(/C=C/C(=O)C[C@@H]2O[C@H](COC(C)=O)[C@@H](OC(C)=O)[C@H](OC(C)=O)[C@H]2OC(C)=O)cc(OC)c1OC | 76.4 | 0.0602 (≈ 34.1 ng/mL) | 140 |  |
| CC(=O)OC[C@H]1O[C@@H](CC(=O)/C=C/c2ccc(Cl)c(Cl)c2)[C@H](OC(C)=O)[C@@H](OC(C)=O)[C@@H]1OC(C)=O | 6.97 | 0.00458 (≈ 2.5 ng/mL) | 13.2 | CC50 at 24 h [3]: 25.8 nM; RatioLC50 (Setaria cervi [5]): 6.5; Activity (Setaria cervi [6]): Active; Activity (Setaria cervi [7]): Active; Activity (Setaria cervi [8]): Active; Activity (Setaria cervi [9]): Active; Ratio CC50/IC50 [4]: 3.97; IC50 [10]: 6.77 nM; MIC [10]: 0.00458 µM (≈ 2.5 ng/mL); inhibition [10]: Dose-dependent effect; Activity (Wuchereria bancrofti): 81.09%; Activity (Setaria cervi [11]): Active |
| CC(=O)OC[C@H]1O[C@@H](CC(=O)/C=C/c2ccco2)[C@H](OC(C)=O)[C@@H](OC(C)=O)[C@@H]1OC(C)=O | 46.6 | 0.0153 (≈ 7.12 ng/mL) | 163 |  |
| CC(=O)OC[C@H]1O[C@@H](CC(=O)/C=C/c2ccc(C)cc2)[C@H](OC(C)=O)[C@@H](OC(C)=O)[C@@H]1OC(C)=O | 13.6 | 0.00581 (≈ 2.85 ng/mL) | 42.2 | CC50 at 24 h [3]: 3.18 nM; Ratio CC50/IC50 [4]: 0.24 |
| CC(=O)OC[C@H]1O[C@@H](CC(=O)/C=C/c2cccs2)[C@H](OC(C)=O)[C@@H](OC(C)=O)[C@@H]1OC(C)=O | 46.9 | 0.0245 (≈ 11.8 ng/mL) | 257 |  |
| IVERMECTIN [listing 1 of 2 here] |  |  |  | IC50 (Setaria cervi [1]): 19.5 nM |
| CC(=O)OC[C@H]1O[C@@H](CC(=O)/C=C/c2ccc3ccccc3c2)[C@H](OC(C)=O)[C@@H](OC(C)=O)[C@@H]1OC(C)=O | > 900 | > 0.9 | > 900 |  |
| COc1cccc(/C=C/C(=O)C[C@@H]2O[C@H](COC(C)=O)[C@@H](OC(C)=O)[C@H](OC(C)=O)[C@H]2OC(C)=O)c1 | > 900 | > 0.9 | > 900 |  |
| CC(=O)OC[C@H]1O[C@@H](CC(=O)/C=C/c2cccc3ccccc23)[C@H](OC(C)=O)[C@@H](OC(C)=O)[C@@H]1OC(C)=O | 13.5 | 0.0117 (≈ 6.15 ng/mL) | 19.4 |  |
| COc1ccccc1/C=C/C(=O)C[C@@H]1O[C@H](COC(C)=O)[C@@H](OC(C)=O)[C@H](OC(C)=O)[C@H]1OC(C)=O | 68.9 | 0.0351 (≈ 17.8 ng/mL) | 256 |  |
| COc1ccc(/C=C/C(=O)C[C@@H]2O[C@H](COC(C)=O)[C@@H](OC(C)=O)[C@H](OC(C)=O)[C@H]2OC(C)=O)cc1 | 41.6 | 0.0207 (≈ 10.5 ng/mL) | 142 |  |
| IVERMECTIN [listing 2 of 2 here] |  |  | 53.6 | MIC (Setaria cervi [1]): 0.00743 µM; Activity (Wuchereria bancrofti): 17.6% |
| COc1cc(/C=C/C(=O)C[C@@H]2O[C@H](COC(C)=O)[C@@H](OC(C)=O)[C@H](OC(C)=O)[C@H]2OC(C)=O)ccc1O | 185 | 0.0722 (≈ 37.7 ng/mL) | 500 |  |
| CC(=O)OC[C@H]1O[C@@H](CC(=O)/C=C/c2cc(Cl)cc(Cl)c2O)[C@H](OC(C)=O)[C@@H](OC(C)=O)[C@@H]1OC(C)=O | 17.7 | 0.00919 (≈ 5.16 ng/mL) | 44.4 |  |
| CC(=O)OC[C@H]1O[C@@H](CC(=O)/C=C/c2ccc(Cl)cc2)[C@H](OC(C)=O)[C@@H](OC(C)=O)[C@@H]1OC(C)=O | 26.6 | 0.0167 (≈ 8.54 ng/mL) | 51.9 |  |
| CC(=O)OC[C@H]1O[C@@H](CC(=O)/C=C/c2ccc(N(C)C)cc2)[C@H](OC(C)=O)[C@@H](OC(C)=O)[C@@H]1OC(C)=O | 226 | 0.113 (≈ 58.9 ng/mL) | 886 |  |
| CC(=O)OC[C@H]1O[C@@H](CC(=O)/C=C/c2ccc([N+](=O)[O-])cc2)[C@H](OC(C)=O)[C@@H](OC(C)=O)[C@@H]1OC(C)=O | 23.9 | 0.0111 (≈ 5.8 ng/mL) | 71.2 |  |
